The structures appear in SMILES notation. Counter-ions that a name gives are not always drawn.

The text below walks through data of patent US4882327A, “Certain heterocyclic N-substituted carboxamides” (Beecham Group p.l.c., priority 1987, dated 1989).

This experiment concerns von Bezold-Jarisch reflex evoked by 5-HT. The experiment in a line: Antagonism of the von Bezold-Jarisch reflex evoked by 5-HT in the anesthetized rat. Format: in vivo. Conditions: iv, urethane-anesthetized male rats, submaximal 5-HT (usually 6 μg/kg i.v.), heart rate changes, read-out: ED50 (dose required to reduce the 5-HT-evoked response to 50% of the control response). The procedure:
Antagonism of the von Bezold-Jarisch reflex
The compounds were evaluated for antagonism of the von Bezold-Jarisch reflex evoked by 5-HT in the anesthetized rat according to the following method
Male rats 250-350 g, were anesthetized with urethane (1.25 g/kg intraperitoneally) and blood pressure and heart rate recorded as described by Fozard J. R. et al., J. Cardiovasc Pharmacol 2, 229-245 (1980). A submaximal dose of 5-HT (usually 6 μg/kg) was given repeatedly by the intravenous route and changes in heart rate quantified Compounds were given intravenously and the concentration required to reduce the 5-HT-evoked response to 50% of the control response (ED50) was then determined.
By ED50 is commonly meant the dose at which the effect has come halfway, by size or by number of responders. Regarding `CCc1cc(C(=O)NC2CC3CCC(C2)N3C)c2ccccn12` (stereo not drawn) [Compound 2, (endo)-N-(8-Methyl-8-azabicyclo[3.2.1]oct-3-yl)-3-ethylindolizin-1-carboxamide], the 50% effective dose (ED50) amounted to 0.24 µg/kg. In the case of `CCc1nc(C(=O)NC2CC3CCCC(C2)N3C)c2ccccn12` (centres unmarked) [Compound 8], the median effective dose (ED50) was determined as 0.5 µg/kg. For `CCc1nc(C(=O)NC2CC3CCC(C2)N3C)c2ccccn12` (stereo not drawn) [Compound 9, (endo)-N-(8-Methyl-8-azabicyclo[3,2,1]oct-3-yl)-3ethylimidazo[1,5-a]plyridin-1-carboxamide] the value was 1 µg/kg; for `CN1C2CCC1CC(NC(=O)C1=CC(C)(C)c3ccccc31)C2` (stereo not drawn) [Compound 13, (endo)-N-(8-Methyl-8-azabicyclo[3.2.11]octan-3-yl)-3,3-dimethylindene-1-carboxamide monohydrochloride], 1.1 µg/kg; for `CN1C2CCC1CC(NC(=O)c1ccc3cccccc1-3)C2` (stereo not drawn) [Compound 17, (endo)-N-(8-Methyl-8-azabicyclo[3.2.1]octan-3-yl)azulene-1-carboxamide], 13 µg/kg.
